According to PMC9097471, “Development of Selective Phosphatidylinositol 5-Phosphate 4-Kinase γ Inhibitors with a Non-ATP-competitive, Allosteric Binding Mode” (Journal of Medicinal Chemistry, 2022):

Legend:
Test in all cases: Kinase panel, radiometric 33P filter binding
Conditions in all cases: read-out: % activity remaining
EPH-B3 = EPH-B3 (Homo sapiens, UniProt P54753)
Description: (§1) filter binding assay using 33P-g-ATPat the MRC PPU International Centre for Kinase Profiling, University of

IKKe = IKKe (Homo sapiens, UniProt Q14164)
Description: as §1
Kinase % activity remaining s.d.

CAMKKb = CAMKKb (Homo sapiens, UniProt Q96RR4)
Description: as §1

TAO1 = TAO1 (Homo sapiens, UniProt Q7L7X3)
Description: as §1

CK1γ2 = CK1γ2 (Homo sapiens, UniProt P78368)
Description: as §1

NEK2a = NEK2a (Homo sapiens, UniProt P51955)
Description: as §1

PAK4 = PAK4 (Homo sapiens, UniProt O96013)
Description: as §1

PKCa = PKCa (Homo sapiens, UniProt P17252)
Description: as §1

WNK1 = WNK1 (Homo sapiens, UniProt Q9H4A3)
Description: as §1

EPH-A2 = EPH-A2 (Homo sapiens, UniProt P29317)
Description: as §1

NUAK1 = NUAK1 (Homo sapiens, UniProt O60285)
Description: as §1
Kinase % activity remaining s.d.

HIPK3 = HIPK3 (Homo sapiens, UniProt Q9H422)
Description: as §1

PLK1 = PLK1 (Homo sapiens, UniProt P53350)
Description: as §1

TSSK1 = TSSK1 (Homo sapiens, UniProt Q9BXA7)
Description: as §1

NEK6 = NEK6 (Homo sapiens, UniProt Q9HC98)
Description: as §1
Kinase % activity remaining s.d.

DYRK1A = DYRK1A (Homo sapiens, UniProt Q13627)
Description: as §1

DYRK3 = DYRK3 (Homo sapiens, UniProt O43781)
Description: as §1

OSR1 = OSR1 (Homo sapiens, UniProt O95747)
AMPK (hum) = AMPK (hum) (Homo sapiens, UniProt Q13131)
Description: as §1

EPH-B1 = EPH-B1 (Homo sapiens, UniProt P54762)
Description: as §1

Sequence of PLK1 (P53350 whole entry): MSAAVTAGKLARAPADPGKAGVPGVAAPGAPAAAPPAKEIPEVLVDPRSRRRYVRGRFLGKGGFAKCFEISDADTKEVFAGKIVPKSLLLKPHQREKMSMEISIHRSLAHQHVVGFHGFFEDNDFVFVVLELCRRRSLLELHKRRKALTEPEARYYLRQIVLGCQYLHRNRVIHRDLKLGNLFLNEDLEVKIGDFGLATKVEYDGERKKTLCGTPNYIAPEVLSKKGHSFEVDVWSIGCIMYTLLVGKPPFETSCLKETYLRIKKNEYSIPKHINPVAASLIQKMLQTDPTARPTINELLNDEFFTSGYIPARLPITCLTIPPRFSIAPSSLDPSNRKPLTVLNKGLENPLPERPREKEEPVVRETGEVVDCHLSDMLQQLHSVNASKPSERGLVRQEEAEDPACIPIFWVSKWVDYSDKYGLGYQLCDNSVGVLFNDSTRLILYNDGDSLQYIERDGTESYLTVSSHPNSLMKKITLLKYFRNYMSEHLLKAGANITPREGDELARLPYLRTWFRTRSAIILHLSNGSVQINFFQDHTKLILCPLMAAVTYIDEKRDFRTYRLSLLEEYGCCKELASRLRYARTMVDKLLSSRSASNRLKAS
Sequence of HIPK3 (Q9H422 whole entry): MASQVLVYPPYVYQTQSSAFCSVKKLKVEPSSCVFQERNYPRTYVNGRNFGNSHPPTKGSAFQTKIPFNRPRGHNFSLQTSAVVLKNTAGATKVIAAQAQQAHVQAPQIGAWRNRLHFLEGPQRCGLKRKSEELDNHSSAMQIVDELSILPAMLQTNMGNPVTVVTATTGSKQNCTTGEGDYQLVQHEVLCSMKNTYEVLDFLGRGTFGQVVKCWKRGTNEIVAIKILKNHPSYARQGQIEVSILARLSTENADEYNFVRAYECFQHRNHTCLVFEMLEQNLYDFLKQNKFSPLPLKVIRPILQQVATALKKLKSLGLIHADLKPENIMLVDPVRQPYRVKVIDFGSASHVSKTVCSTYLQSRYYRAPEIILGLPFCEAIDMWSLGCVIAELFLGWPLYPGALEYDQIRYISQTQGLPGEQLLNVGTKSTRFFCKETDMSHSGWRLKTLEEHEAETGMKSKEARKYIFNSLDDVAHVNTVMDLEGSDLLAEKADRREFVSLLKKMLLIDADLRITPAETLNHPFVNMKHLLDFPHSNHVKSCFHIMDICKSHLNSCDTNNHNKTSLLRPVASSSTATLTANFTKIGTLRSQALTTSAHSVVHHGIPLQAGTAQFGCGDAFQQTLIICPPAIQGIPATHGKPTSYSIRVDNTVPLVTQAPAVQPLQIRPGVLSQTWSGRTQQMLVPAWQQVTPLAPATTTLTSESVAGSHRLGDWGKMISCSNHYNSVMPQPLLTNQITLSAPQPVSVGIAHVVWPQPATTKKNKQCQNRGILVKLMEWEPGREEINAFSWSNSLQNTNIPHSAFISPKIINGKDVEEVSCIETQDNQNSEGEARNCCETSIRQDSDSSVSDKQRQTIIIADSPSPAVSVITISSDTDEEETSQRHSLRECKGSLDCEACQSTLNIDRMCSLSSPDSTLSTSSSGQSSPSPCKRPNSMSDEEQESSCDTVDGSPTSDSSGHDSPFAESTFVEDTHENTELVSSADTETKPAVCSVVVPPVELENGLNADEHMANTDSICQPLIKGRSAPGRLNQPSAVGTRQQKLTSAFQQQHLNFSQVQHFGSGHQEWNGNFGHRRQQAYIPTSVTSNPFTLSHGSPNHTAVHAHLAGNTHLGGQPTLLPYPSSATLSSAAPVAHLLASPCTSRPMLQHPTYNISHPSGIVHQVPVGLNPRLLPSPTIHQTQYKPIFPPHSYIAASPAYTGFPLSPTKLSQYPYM
Sequence of NEK2a (P51955 whole entry): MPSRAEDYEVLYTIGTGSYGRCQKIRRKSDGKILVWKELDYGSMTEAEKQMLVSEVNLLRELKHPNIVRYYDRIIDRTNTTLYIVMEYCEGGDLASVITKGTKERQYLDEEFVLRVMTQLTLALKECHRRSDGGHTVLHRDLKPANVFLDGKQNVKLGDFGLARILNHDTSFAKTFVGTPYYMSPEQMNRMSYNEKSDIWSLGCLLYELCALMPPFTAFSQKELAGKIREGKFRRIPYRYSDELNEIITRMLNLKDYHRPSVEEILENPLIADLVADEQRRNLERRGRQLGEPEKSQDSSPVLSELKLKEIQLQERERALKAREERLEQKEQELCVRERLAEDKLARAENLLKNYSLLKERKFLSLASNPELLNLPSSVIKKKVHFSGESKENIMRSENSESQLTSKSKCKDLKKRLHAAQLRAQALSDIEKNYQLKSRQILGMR
Sequence of NUAK1 (O60285 whole entry): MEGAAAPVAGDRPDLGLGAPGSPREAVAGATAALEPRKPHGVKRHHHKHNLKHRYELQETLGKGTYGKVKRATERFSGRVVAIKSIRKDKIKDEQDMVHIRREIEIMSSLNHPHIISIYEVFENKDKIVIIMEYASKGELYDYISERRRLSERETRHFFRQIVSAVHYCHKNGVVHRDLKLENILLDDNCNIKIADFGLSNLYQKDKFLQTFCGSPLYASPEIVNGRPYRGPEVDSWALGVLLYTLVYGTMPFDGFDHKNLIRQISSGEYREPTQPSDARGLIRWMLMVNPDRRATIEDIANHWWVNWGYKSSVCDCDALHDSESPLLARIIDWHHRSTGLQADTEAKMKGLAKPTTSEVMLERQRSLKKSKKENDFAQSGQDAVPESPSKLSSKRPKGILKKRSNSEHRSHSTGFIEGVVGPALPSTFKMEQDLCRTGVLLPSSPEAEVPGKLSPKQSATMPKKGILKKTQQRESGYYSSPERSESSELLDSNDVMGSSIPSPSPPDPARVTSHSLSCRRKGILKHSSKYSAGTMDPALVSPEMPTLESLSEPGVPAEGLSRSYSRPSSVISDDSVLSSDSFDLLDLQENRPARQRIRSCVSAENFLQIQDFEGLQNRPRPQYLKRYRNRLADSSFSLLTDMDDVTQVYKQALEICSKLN
Sequence of CAMKKb (Q96RR4 whole entry): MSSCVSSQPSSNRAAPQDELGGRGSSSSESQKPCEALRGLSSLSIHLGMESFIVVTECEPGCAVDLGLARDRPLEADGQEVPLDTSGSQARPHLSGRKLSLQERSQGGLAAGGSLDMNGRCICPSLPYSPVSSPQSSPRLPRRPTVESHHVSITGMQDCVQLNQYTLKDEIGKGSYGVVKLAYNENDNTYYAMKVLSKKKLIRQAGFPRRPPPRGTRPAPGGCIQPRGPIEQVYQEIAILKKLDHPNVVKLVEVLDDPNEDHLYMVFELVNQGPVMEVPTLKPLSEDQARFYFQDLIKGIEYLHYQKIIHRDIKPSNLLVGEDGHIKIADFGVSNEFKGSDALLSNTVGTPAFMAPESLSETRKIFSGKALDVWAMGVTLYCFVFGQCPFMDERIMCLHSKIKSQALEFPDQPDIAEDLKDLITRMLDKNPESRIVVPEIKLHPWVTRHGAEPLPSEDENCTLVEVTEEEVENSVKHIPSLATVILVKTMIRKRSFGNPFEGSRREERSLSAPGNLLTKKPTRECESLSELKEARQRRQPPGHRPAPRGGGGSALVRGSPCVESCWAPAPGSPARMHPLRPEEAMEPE
Sequence of NEK6 (Q9HC98 whole entry): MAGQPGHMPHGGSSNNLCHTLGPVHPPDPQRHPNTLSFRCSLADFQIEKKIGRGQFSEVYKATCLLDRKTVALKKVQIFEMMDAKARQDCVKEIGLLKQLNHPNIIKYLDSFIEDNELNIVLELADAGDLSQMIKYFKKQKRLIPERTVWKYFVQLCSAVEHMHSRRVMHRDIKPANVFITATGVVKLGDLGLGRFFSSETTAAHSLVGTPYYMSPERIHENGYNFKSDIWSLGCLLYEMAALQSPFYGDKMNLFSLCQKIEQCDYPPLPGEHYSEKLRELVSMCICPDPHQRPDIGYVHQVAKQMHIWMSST
Sequence of CK1γ2 (P78368 whole entry): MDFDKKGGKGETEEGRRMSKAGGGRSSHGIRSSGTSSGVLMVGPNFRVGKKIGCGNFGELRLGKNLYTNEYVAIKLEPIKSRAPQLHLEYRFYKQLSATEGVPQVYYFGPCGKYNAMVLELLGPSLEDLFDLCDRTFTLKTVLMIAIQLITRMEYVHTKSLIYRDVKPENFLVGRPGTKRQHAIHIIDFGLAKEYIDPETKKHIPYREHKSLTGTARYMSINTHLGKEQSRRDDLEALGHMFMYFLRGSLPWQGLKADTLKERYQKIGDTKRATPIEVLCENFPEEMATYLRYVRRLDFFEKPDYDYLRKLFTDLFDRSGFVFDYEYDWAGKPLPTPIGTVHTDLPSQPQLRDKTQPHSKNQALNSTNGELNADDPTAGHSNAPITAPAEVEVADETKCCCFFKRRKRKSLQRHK

## CC(C)c1ccccc1-c1nc(NCc2ccccn2)c2c(ccn2C)n1 [Compound 40]
EPH-B3
  remaining activity at 10 µM: 105%
IKKe
  remaining activity at 10 µM: 98%
CAMKKb
  remaining activity at 10 µM: 99%
TAO1
  remaining activity at 10 µM: 115%
CK1γ2
  remaining activity at 10 µM: 97%
NEK2a
  remaining activity at 10 µM: 103%
PAK4
  remaining activity at 10 µM: 95%
PKCa
  remaining activity at 10 µM: 118%
WNK1
  remaining activity at 10 µM: 112%
EPH-A2
  remaining activity at 10 µM: 104%
NUAK1
  remaining activity at 10 µM: 88%
HIPK3
  remaining activity at 10 µM: 92%
PLK1
  remaining activity at 10 µM: 97%
TSSK1
  remaining activity at 10 µM: 96%
NEK6
  remaining activity at 10 µM: 120%
DYRK1A
  remaining activity at 10 µM: 101%
DYRK3
  remaining activity at 10 µM: 128%
OSR1
  remaining activity at 10 µM: 120%
AMPK (hum)
  remaining activity at 10 µM: 88%
EPH-B1
  remaining activity at 10 µM: 95%
